Like-named read-outs stand apart in the source and are kept apart here.
What was measured:
[1] = system: 5HT; settings: 200 mg/kg i.p. qid for 3 days; cited from earlier work
[2] = system: cholangiocarcinoma; settings: xenograft model of cholangiocarcinoma; cited from earlier work
[3] = system: 5HT; settings: mice; cited from earlier work
[4] = system: 5HT; settings: in vivo; cited from earlier work
[5] = system: 5HT / 5HIAA; settings: phase IIA study, qid; cited from earlier work
[6] = target: human TPH1 (Homo sapiens (Human), UniProt P17752); experiment: Biochemical in vitro assay using fluorescence readout (TPH1 inhibition)
Sequence of human TPH1 (P17752 whole entry): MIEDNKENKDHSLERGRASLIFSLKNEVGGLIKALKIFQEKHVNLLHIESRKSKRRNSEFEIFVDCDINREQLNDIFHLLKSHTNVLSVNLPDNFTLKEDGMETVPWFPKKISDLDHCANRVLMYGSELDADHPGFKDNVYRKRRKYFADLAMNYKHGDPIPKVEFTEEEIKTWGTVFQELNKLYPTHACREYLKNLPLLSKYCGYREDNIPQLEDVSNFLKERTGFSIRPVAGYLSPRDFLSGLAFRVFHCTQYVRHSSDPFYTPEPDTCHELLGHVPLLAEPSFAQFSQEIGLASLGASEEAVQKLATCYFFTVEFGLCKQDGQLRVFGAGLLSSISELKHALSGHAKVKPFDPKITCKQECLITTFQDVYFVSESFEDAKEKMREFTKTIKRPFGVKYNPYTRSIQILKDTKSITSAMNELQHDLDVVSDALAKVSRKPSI

[7] = full length human TPH1, 40 μM L-tryptophan, 15° C., 60 minutes, fluorescence at 540 nm, mean if determined several times
[8] = human TPH1, fluorescence readout

Row | SMILES | IC50 [6, 8] | further results
1 | N[C@@H](Cc1ccc(Cl)cc1)C(=O)O (racemic) [PCA, p-chlorophenylalanine] | – | 5HT in the brain [1]: ~20 % original; 5HT in the gut [1]: ~50 % original; tumor volume [2]: dramatic reduction in tumor volume
2 | Nc1nc(OC(c2ccc(-c3cccc(F)c3)cc2)C(F)(F)F)cc(-c2ccc(C[C@H](N)C(=O)O)cc2)n1 (stereo partly shown) [LP533401] | – | brain 5HT concentrations [3]: without effecting brain concentrations; gut 5HT [3]: lower gut 5HT
3 | COc1cccc(-c2ccc([C@@H](Oc3cc(-c4ccc(C[C@H](N)C(=O)O)cc4)nc(N)n3)C(F)(F)F)cc2)c1 [LX1031, (S)-2-Amino-3-(4-{2-amino-6-[(R)-2,2,2-trifluoro-1-(3′-methoxy-biphenyl-4-yl)-ethoxy]-pyrimidin-4-yl}-phenyl)-propionic acid] | – | 5HT in the colon [4]: only a minor reduction; 5HT in the jejunum [4]: lowers 5HT in the jejunum; brain 5HT [4]: no effect on brain 5HT; blood 5HT [5]: did not affect blood 5HT; urinary 5HIAA reduction [5]: up to 30%
4 | Cc1nn2c3c(nc2s1)CCN(C(=O)COc1ccc(C(=O)N(C)C)nc1Cl)C3c1ncc(C(=O)N(C)C)s1 (stereo not shown) [Example 1.37.4, 2-(6-(2-((2-Chloro-6-(dimethylcarbamoyl)pyridin-3-yl)oxy)acetyl)-2-methyl-5,6,7,8-tetrahydro-[1,3,4]thiadiazolo[2′,3′:2,3]imidazo[4,5-c]pyridin-5-yl)-N,N-dimethylthiazole-5-carboxamide] | – | IC50 [6, 7]: 40 nM
5 | CN(C)C(=O)c1ccc(OCC(=O)N2CCc3nc4sccn4c3C2c2sc(C(=O)N(C)C)cc2F)c(Cl)n1 (stereo not shown) [Example 6.9.2, 6-chloro-5-(2-(5-(5-(dimethylcarbamoyl)-3-fluoro-thiophen-2-yl)-7,8-dihydrothiazolo[2′,3′:2,3]imidazo-[4,5-c]pyridin-6(5H)-yl)-2-oxoethoxy)-N,N-dimethylpicolinamide] | 5 nM | –
6 | CCc1nc(C)ccc1OCC(=O)N1CCc2nc3sc(C)nn3c2C1c1cnc(OC(F)F)cc1C (stereo not shown) [Example 1.15.3, 1-(5-(6-(difluoromethoxy)-4-methylpyridin-3-yl)-2-methyl-7,8-dihydro-[1,3,4]thiadiazolo[2′,3′:2,3]imidazo[4,5c]pyridin-6(5H)-yl)-2-((2-ethyl-6-methylpyridin-3-yl)oxy)ethanone] | 156 nM | –
7 | COc1ccc(C2c3c(nc4sc(C)nn34)CCN2C(=O)COc2ccc3ccccc3c2)cc1OC (stereo not shown) [Example 1.1.1, 1-(5-(3,4-dimethoxyphenyl)-2-methyl-7,8-dihydro-[1,3,4]thiadiazolo[2′,3′:2,3]imidazo[4,5-c]pyridin-6(5H)-yl)-2-(naphthalen-2-yloxy)ethanone] | 10 nM | –
8 | COC1(c2cnc(C3c4c(nc5sc(C)nn45)CCN3C(=O)COc3ccc(N4CCOCC4)nc3Cl)s2)COC1 (stereo not shown) [Example 1.65.1, 2-((2-chloro-6-morpholinopyridin-3-yl)oxy)-1-(5-(5-(3-methoxyoxetan-3-yl)thiazol-2-yl)-2-methyl-7,8-dihydro-[1,3,4]thiadiazolo[2′,3′:2,3]imidazo[4,5-c]pyridin-6(5H)-yl)ethanone] | 208 nM | –
9 | COCCOc1ccc(C2c3c(nc4sc(C)nn34)CCN2C(=O)COc2ccc(NS(C)(=O)=O)nc2Cl)c(F)c1 (stereo not shown) [Example 1.83.2, N-(6-chloro-5-(2-(5-(2-fluoro-4-(2-methoxyethoxy)phenyl)-2-methyl-7,8-dihydro-[1,3,4]thiadiazolo[2′,3′:2,3]imidazo[4,5-c]pyridin-6(5H)-yl)-2-oxoethoxy)pyridin-2-yl)methanesulfonamide] | 18 nM | –
10 | CCc1cc(Cl)ccc1OCC(=O)N1CCc2nc3sccn3c2C1c1c(C)nn(C)c1C (stereo not shown) [Example 6.15.4, 2-(4-chloro-2-ethylphenoxy)-1-(5-(1,3,5-trimethyl-1H-pyrazol-4-yl)-7,8-dihydrothiazolo[2′,3′:2,3]imidazo[4,5-c]pyridin-6(5H)-yl)ethanone] | 102 nM | –
11 | Cc1cnc([C@H]2c3c(nc4sc(C)nn34)CCN2C(=O)COc2ccc(N3CCCS3(=O)=O)nc2Cl)c(F)c1 [Example 1.31.17, (R)-2-((2-chloro-6-(1,1-dioxidoisothiazolidin-2-yl)pyridin-3-yl)oxy)-1-(5-(3-fluoro-5-methylpyridin-2-yl)-2-methyl-7,8-dihydro-[1,3,4]thiadiazolo[2′,3′:2,3]imidazo[4,5-c]pyridin-6(5H)-yl)ethanone] | 8 nM | –
12 | COCCOc1ccc(C2c3c(nc4sc(C)nn34)CCN2C(=O)COc2ccc(C(=O)NC3CC3)nc2Cl)c(F)c1 (stereo not shown) [Example 1.83.1, 6-chloro-N-cyclopropyl-5-(2-(5-(2-fluoro-4-(2-methoxyethoxy)phenyl)-2-methyl-7,8-dihydro-[1,3,4]thiadiazolo[2′,3′:2,3]imidazo[4,5-c]pyridin-6(5H)-yl)-2-oxoethoxy)picolinamide] | 24 nM | –
13 | Cc1nn2c3c(nc2s1)CCN(C(=O)COc1ccc(NS(C)(=O)=O)nc1Cl)C3c1sc(C(C)C)nc1C (stereo not shown) [Example 1.73.1, N-(6-chloro-5-(2-(5-(2-isopropyl-4-methylthiazol-5-yl)-2-methyl-7,8-dihydro-[1,3,4]thiadiazolo[2′,3′:2,3]imidazo[4,5-c]pyridin-6(5H)-yl)-2-oxoethoxy)pyridin-2-yl)methanesulfonamide] | 60 nM | –
14 | Cc1nn2c3c(nc2s1)CCN(C(=O)COc1ccc(N2CCOCC2)nc1Cl)C3c1csc(C2OCCO2)c1 (stereo not shown) [Example 1.85.1, 1-(5-(5-(1,3-dioxolan-2-yl)thiophen-3-yl)-2-methyl-7,8-dihydro-[1,3,4]thiadiazolo[2′,3′:2,3]imidazo[4,5-c]pyridin-6(5H)-yl)-2-((2-chloro-6-morpholinopyridin-3-yl)oxy)ethan-1-one] | 13 nM | –
15 | Cc1nn2c3c(nc2s1)CCN(C(=O)COc1ccc(N2CCCC2=O)nc1Cl)C3c1ccc(Cl)cc1F (stereo not shown) [Example 1.4.17, 1-(6-Chloro-5-(2-(5-(4-chloro-2-fluorophenyl)-2-methyl-7,8-dihydro-[1,3,4]thiadiazolo[2′,3′:2,3]imidazo[4,5-c]pyridin-6(5H)-yl)-2-oxoethoxy)pyridin-2-yl)pyrrolidin-2-one] | – | IC50 [6, 7]: 2 nM
16 | Cc1cnc(C2c3c(nc4sc(C)nn34)CCN2C(=O)COc2ccc(-c3ncco3)nc2Cl)c(F)c1 (stereo not shown) [Example 1.31.13, 2-((2-chloro-6-(oxazol-2-yl)pyridin-3-yl)oxy)-1-(5-(3-fluoro-5-methylpyridin-2-yl)-2-methyl-7,8-dihydro-[1,3,4]thiadiazolo[2′,3′:2,3]imidazo[4,5-c]pyridin-6(5H)-yl)ethanone] | 16 nM | –
17 | Cc1cc(Cl)ccc1OCC(=O)N1CCc2nc3sccn3c2C1c1nc2ccccc2s1 (stereo not shown) [Example 6.12.4, 1-(5-(benzo[d]thiazol-2-yl)-7,8-dihydrothiazolo-[2′,3′:2,3]imidazo[4,5-c]pyridin-6(5H)-yl)-2-(4-chloro-2-methylphenoxy)ethanone] | 36 nM | –
18 | Cc1nn2c3c(nc2s1)CCN(C(=O)COc1ccc(C(N)=O)cc1Cl)C3c1ccc(Cl)cc1F (stereo not shown) [Example 1.4.26, 3-Chloro-4-(2-(5-(4-chloro-2-fluorophenyl)-2-methyl-7,8-dihydro-[1,3,4]thiadiazolo[2′,3′:2,3]imidazo[4,5-c]pyridin-6(5H)-yl)-2-oxoethoxy)benzamide] | – | IC50 [6, 7]: 10 nM
19 | Cc1nn2c3c(nc2s1)CCN(C(=O)COc1ccc(NS(C)(=O)=O)nc1Cl)C3c1ncccc1F (stereo not shown) [Example 1.35.4, N-(6-chloro-5-(2-(5-(3-fluoropyridin-2-yl)-2-methyl-7,8-dihydro-[1,3,4]thiadiazolo[2′,3′:2,3]imidazo[4,5-c]pyridine-6(5H)-yl)-2-oxoethoxy)pyridin-2-l)methanesulfonamide] | – | IC50 [6]: 35 nM
20 | CNC(=O)c1ccc(OCC(=O)N2CCc3nc4sc(C)nn4c3C2c2sc(C(=O)N(C)C)cc2F)c(Cl)n1 (stereo not shown) [Example 1.24.10, 6-chloro-5-(2-(5-(5-(dimethylcarbamoyl)-3-fluoro-thiophen-2-yl)-2-methyl-7,8-dihydro-[1,3,4]thiadiazolo[2′,3′:2,3]imidazo[4,5-c]pyridin-6(5H)-yl)-2-oxoethoxy)-N-methylpicolinamide] | 20 nM | –
21 | Cc1ccc(Cl)c(OCC(=O)N2CCc3nc4sccn4c3C2c2cc3cccnc3s2)c1 (stereo not shown) [Example 6.14.5, 2-(2-chloro-5-methylphenoxy)-1-(5-(thieno[2,3-b]-pyridin-2-yl)-7,8-dihydrothiazolo[2′,3′:2,3]imidazo[4,5-c]pyridin-6(5H)-yl)ethanone] | 43 nM | –
22 | CCc1nc(NS(C)(=O)=O)ccc1OCC(=O)N1CCc2nc3sc(C(F)(F)F)nn3c2C1c1ncc(C)cc1F (stereo not shown) [Example 5.2.2, N-(6-ethyl-5-(2-(5-(3-fluoro-5-methylpyridin-2-yl)-2-(trifluoromethyl)-7,8-dihydro-[1,3,4]thiadiazolo[2′,3′:2,3]imidazo[4,5-c]pyridin-6(5H)-yl)-2-oxoethoxy)pyridin-2-yl)methanesulfonamide] | 42 nM | –
23 | O=C(COc1ccc(CN2CCOCC2)nc1Cl)N1CCc2nc3sccn3c2C1c1cnn(-c2ccccc2)c1 (stereo not shown) [Example 6.13.6, 2-((2-chloro-6-(morpholinomethyl)pyridin-3-yl)oxy)-1-(5-(1-phenyl-1H-pyrazol-4-yl)-7,8-dihydrothiazolo-[2′,3′:2,3]imidazo[4,5-c]pyridin-6(5H)-yl)ethanone] | 28 nM | –
24 | Cc1nn2c3c(nc2s1)CCN(C(=O)COc1ccc(N2CC(F)(F)C2)nc1Cl)C3c1sccc1F (stereo not shown) [Example 1.23.8, 2-((2-chloro-6-(3,3-difluoroazetidin-1-yl)pyridin-3-yl)oxy)-1-(5-(3-fluorothiophen-2-yl)-2-methyl-7,8-dihydro-[1,3,4]thiadiazolo[2′,3′:2,3]imidazo[4,5-c]pyridin-6(5H)-yl)ethanone] | 6 nM | –

From US9765092B2, “Tricyclic piperidine compounds” (ACTELION PHARMACEUTICALS LTD, priority 2013, dated 2017)
